According to ChEMBL document CHEMBL1201862, “PubChem BioAssay data set” (2004):
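All cell lines were grown in 96-well plates and treated with compound for 48 hours. GI50 = concentration required for 50% inhibition of growth.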 Activity calls are given as the source filed them. Rule as the data show it: active = GI50 up to about 1.1 µM and inactive = higher.

How the values were obtained:
Test in all cases: DTP human tumour cell line panel, 48 h
NCI-H226 = test system: NCI-H226
A498 = test system: A498
K562 = test system: K562
CAKI-1 = test system: CAKI-1
HT-29 = test system: HT-29
SF-268 = test system: SF-268
NCI-H23 = test system: NCI-H23
UO-31 = test system: UO-31
SR = test system: SR
MDA-MB-231 = test system: MDA-MB-231
HCT-116 = test system: HCT-116
HCT-15 = test system: HCT-15
MDA-MB-435 = test system: MDA-MB-435
OVCAR-5 = test system: OVCAR-5
MCF7 = test system: MCF7
OVCAR-3 = test system: OVCAR-3
SN12C = test system: SN12C
Malme-3M = test system: Malme-3M
Hs-578T = test system: Hs-578T
SK-OV-3 = test system: SK-OV-3
HOP-62 = test system: HOP-62
BT-549 = test system: BT-549
SK-MEL-2 = test system: SK-MEL-2
NCI-H522 = test system: NCI-H522
786-0 = test system: 786-0
NCI/ADR-RES = test system: NCI/ADR-RES
SW-620 = test system: SW-620
UACC-257 = test system: UACC-257
IGROV-1 = test system: IGROV-1
MDA-N = test system: MDA-N
CCRF-CEM = test system: CCRF-CEM
U-251 = test system: U-251
PC-3 = test system: PC-3
RXF 393 = test system: RXF 393
ACHN = test system: ACHN
SK-MEL-5 = test system: SK-MEL-5
OVCAR-8 = test system: OVCAR-8
LOX IMVI = test system: LOX IMVI
SF-295 = test system: SF-295
RPMI-8226 = test system: RPMI-8226
HCC 2998 = test system: HCC 2998
SNB-75 = test system: SNB-75
T47D = test system: T47D
TK-10 = test system: TK-10
A549 = test system: A549
SF-539 = test system: SF-539
SK-MEL-28 = test system: SK-MEL-28
MOLT-4 = test system: MOLT-4
KM12 = test system: KM12
OVCAR-4 = test system: OVCAR-4
UACC-62 = test system: UACC-62
COLO 205 = test system: COLO 205
SNB-19 = test system: SNB-19
EKVX = test system: EKVX
HOP-92 = test system: HOP-92
NCI-H460 = test system: NCI-H460
M14 = test system: M14
DU-145 = test system: DU-145
HL-60 = test system: HL-60

Compound: COc1ccc(CNc2cc(=O)n(C)c(=O)[nH]2)cc1
- GI50 (NCI-H226): > 100 µM (inactive)
- GI50 (A498): > 100 µM (inactive)
- GI50 (K562): > 100 µM (inactive)
- GI50 (CAKI-1): > 100 µM (inactive)
- GI50 (HT-29): > 100 µM (inactive)
- GI50 (SF-268): > 100 µM (inactive)
- GI50 (NCI-H23): > 100 µM (inactive)
- GI50 (UO-31): > 100 µM (inactive)
- GI50 (SR): > 100 µM (inactive)
- GI50 (MDA-MB-231): > 100 µM (inactive)
- GI50 (HCT-116): > 100 µM (inactive)
- GI50 (HCT-15): > 100 µM
- GI50 (MDA-MB-435): > 100 µM (inactive)
- GI50 (OVCAR-5): > 100 µM (inactive)
- GI50 (MCF7): > 100 µM (inactive)
- GI50 (OVCAR-3): > 100 µM (inactive)
- GI50 (SN12C): > 100 µM (inactive)
- GI50 (Malme-3M): > 100 µM (inactive)
- GI50 (Hs-578T): > 100 µM (inactive)
- GI50 (SK-OV-3): > 100 µM (inactive)
- GI50 (HOP-62): > 100 µM (inactive)
- GI50 (BT-549): > 100 µM (inactive)
- GI50 (SK-MEL-2): > 100 µM (inactive)
- GI50 (NCI-H522): > 100 µM (inactive)
- GI50 (786-0): > 100 µM (inactive)
- GI50 (NCI/ADR-RES): > 100 µM (inactive)
- GI50 (SW-620): > 100 µM (inactive)
- GI50 (UACC-257): > 100 µM (inactive)
- GI50 (IGROV-1): > 100 µM (inactive)
- GI50 (MDA-N): > 100 µM (inactive)
- GI50 (CCRF-CEM): > 100 µM (inactive)
- GI50 (U-251): > 100 µM (inactive)
- GI50 (PC-3): > 100 µM (inactive)
- GI50 (RXF 393): 35.6 µM (inactive)
- GI50 (ACHN): > 100 µM (inactive)
- GI50 (SK-MEL-5): > 100 µM (inactive)
- GI50 (OVCAR-8): > 100 µM (inactive)
- GI50 (LOX IMVI): > 100 µM (inactive)
- GI50 (SF-295): > 100 µM (inactive)
- GI50 (RPMI-8226): > 100 µM (inactive)
- GI50 (HCC 2998): > 100 µM (inactive)
- GI50 (SNB-75): 33.3 µM (inactive)
- GI50 (T47D): > 100 µM (inactive)
- GI50 (TK-10): > 100 µM (inactive)
- GI50 (A549): > 100 µM (inactive)
- GI50 (SF-539): > 100 µM (inactive)
- GI50 (SK-MEL-28): > 100 µM (inactive)
- GI50 (MOLT-4): > 100 µM (inactive)
- GI50 (KM12): > 100 µM (inactive)
- GI50 (OVCAR-4): > 100 µM (inactive)
- GI50 (UACC-62): > 100 µM (inactive)
- GI50 (COLO 205): > 100 µM (inactive)
- GI50 (SNB-19): > 100 µM (inactive)
- GI50 (EKVX): > 100 µM (inactive)
- GI50 (HOP-92): > 100 µM (inactive)
- GI50 (NCI-H460): > 100 µM (inactive)
- GI50 (M14): > 100 µM (inactive)

Compound: COC(=O)/C=C/C1(O)C=CC(=O)C=C1
- GI50 (NCI-H226): 19.6 µM (inactive)
- GI50 (A498): 26.9 µM (inactive)
- GI50 (K562): 3.15 µM (inactive)
- GI50 (CAKI-1): 1.41 µM (inactive)
- GI50 (HT-29): 2.51 µM (inactive)
- GI50 (SF-268): 2.22 µM (inactive)
- GI50 (NCI-H23): 3.31 µM (inactive)
- GI50 (UO-31): 1.7 µM (inactive)
- GI50 (SR): 2.55 µM (inactive)
- GI50 (MDA-MB-231): 2.95 µM (inactive)
- GI50 (DU-145): 2.59 µM (inactive)
- GI50 (HCT-116): 1.88 µM (inactive)
- GI50 (HCT-15): 2.66 µM
- GI50 (MDA-MB-435): 5.13 µM (inactive)
- GI50 (OVCAR-5): 5.78 µM (inactive)
- GI50 (MCF7): 2.87 µM (inactive)
- GI50 (OVCAR-3): 2.17 µM (inactive)
- GI50 (SN12C): 1.77 µM (inactive)
- GI50 (Malme-3M): 2.62 µM (inactive)
- GI50 (HL-60): 2.38 µM (inactive)
- GI50 (SK-OV-3): 17 µM (inactive)
- GI50 (HOP-62): 4.37 µM (inactive)
- GI50 (BT-549): 5.27 µM (inactive)
- GI50 (SK-MEL-2): 6.32 µM (inactive)
- GI50 (NCI-H522): 0.338 µM (active)
- GI50 (786-0): 2.23 µM (inactive)
- GI50 (NCI/ADR-RES): 3.5 µM (inactive)
- GI50 (SW-620): 5.7 µM (inactive)
- GI50 (UACC-257): 3.3 µM (inactive)
- GI50 (IGROV-1): 2.69 µM (inactive)
- GI50 (MDA-N): 1.89 µM (inactive)
- GI50 (CCRF-CEM): 1.77 µM (inactive)
- GI50 (U-251): 3.67 µM (inactive)
- GI50 (PC-3): 2.34 µM (inactive)
- GI50 (RXF 393): 3.12 µM (inactive)
- GI50 (ACHN): 2.1 µM (inactive)
- GI50 (SK-MEL-5): 4.65 µM (inactive)
- GI50 (OVCAR-8): 3.4 µM (inactive)
- GI50 (LOX IMVI): 2.07 µM (inactive)
- GI50 (SF-295): 11 µM (inactive)
- GI50 (RPMI-8226): 2.45 µM (inactive)
- GI50 (HCC 2998): 7.52 µM (inactive)
- GI50 (SNB-75): 9.86 µM (inactive)
- GI50 (T47D): 2.67 µM (inactive)
- GI50 (TK-10): 5.37 µM (inactive)
- GI50 (A549): 8.3 µM (inactive)
- GI50 (SF-539): 2.15 µM (inactive)
- GI50 (SK-MEL-28): 3.44 µM (inactive)
- GI50 (MOLT-4): 2.02 µM (inactive)
- GI50 (KM12): 2.32 µM (inactive)
- GI50 (OVCAR-4): 3.94 µM (inactive)
- GI50 (UACC-62): 3 µM (inactive)
- GI50 (COLO 205): 3.4 µM (inactive)
- GI50 (SNB-19): 3.83 µM (inactive)
- GI50 (EKVX): 3.61 µM (inactive)
- GI50 (HOP-92): 3.66 µM (inactive)
- GI50 (NCI-H460): 16.3 µM (inactive)
- GI50 (M14): 1.79 µM (inactive)

Compound: COc1ccc(C2C3CCc4ccccc4C3=NN2S(=O)(=O)c2ccc(/C=C/C(=O)O)cc2)cc1 (stereo not drawn)
- GI50 (NCI-H226): 5.98 µM (inactive)
- GI50 (K562): 2.84 µM (inactive)
- GI50 (CAKI-1): 8.93 µM (inactive)
- GI50 (HT-29): 3.33 µM (inactive)
- GI50 (SF-268): 5.35 µM (inactive)
- GI50 (NCI-H23): < 0.01 µM (active)
- GI50 (UO-31): 5.74 µM (inactive)
- GI50 (SR): 0.869 µM (active)
- GI50 (MDA-MB-231): 4.84 µM (inactive)
- GI50 (DU-145): 22.1 µM (inactive)
- GI50 (HCT-116): 3.53 µM (inactive)
- GI50 (HCT-15): 0.188 µM
- GI50 (MDA-MB-435): 1.07 µM (active)
- GI50 (OVCAR-5): 9.91 µM (inactive)
- GI50 (MCF7): 2.1 µM (inactive)
- GI50 (OVCAR-3): 3.99 µM (inactive)
- GI50 (SN12C): 6.25 µM (inactive)
- GI50 (Malme-3M): 2.77 µM (inactive)
- GI50 (HL-60): 3.07 µM (inactive)
- GI50 (SK-OV-3): 1.55 µM (inactive)
- GI50 (HOP-62): 5.61 µM (inactive)
- GI50 (BT-549): 10.4 µM (inactive)
- GI50 (SK-MEL-2): 2.71 µM (inactive)
- GI50 (NCI-H522): 2.31 µM (inactive)
- GI50 (786-0): 1.82 µM (inactive)
- GI50 (NCI/ADR-RES): 1.75 µM (inactive)
- GI50 (SW-620): 3.18 µM (inactive)
- GI50 (IGROV-1): 0.755 µM (active)
- GI50 (MDA-N): 1.42 µM (inactive)
- GI50 (CCRF-CEM): 3.46 µM (inactive)
- GI50 (U-251): 3.21 µM (inactive)
- GI50 (PC-3): 3.98 µM (inactive)
- GI50 (RXF 393): 3.15 µM (inactive)
- GI50 (ACHN): 3.21 µM (inactive)
- GI50 (SK-MEL-5): 4.01 µM (inactive)
- GI50 (OVCAR-8): 11 µM (inactive)
- GI50 (LOX IMVI): 4.73 µM (inactive)
- GI50 (SF-295): 2.93 µM (inactive)
- GI50 (RPMI-8226): 3.07 µM (inactive)
- GI50 (T47D): 7.06 µM (inactive)
- GI50 (TK-10): 6.79 µM (inactive)
- GI50 (A549): 5.11 µM (inactive)
- GI50 (SF-539): 2.3 µM (inactive)
- GI50 (MOLT-4): 3.61 µM (inactive)
- GI50 (KM12): 1.82 µM (inactive)
- GI50 (OVCAR-4): 7.23 µM (inactive)
- GI50 (UACC-62): 2.82 µM (inactive)
- GI50 (COLO 205): 2 µM (inactive)
- GI50 (SNB-19): 7.29 µM (inactive)
- GI50 (EKVX): 8.99 µM (inactive)
- GI50 (HOP-92): 11.6 µM (inactive)
- GI50 (NCI-H460): 3.52 µM (inactive)
- GI50 (M14): 4.75 µM (inactive)
